According to patent US10597388B2, “Pyridazinone herbicides” (FMC CORPORATION, priority 2014, dated 2020):

What was measured:
Type in all cases: in vivo
[1] = tested on: galium (catchweed bedstraw, Galium aparine); test: Test A greenhouse herbicide test, postemergence; conditions: for Plant response rating, Galium: 125 g ai/ha, 0 to 100 scale where 0 is no effect and 100 is complete control; for Galium plant response rating: 500 g ai/ha, 0 to 100 scale, 0 is no effect, 100 is complete control
In short: (§1)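 Plants grown in loam soil/sand blend pots were treated postemergence at 2 to 10 cm height, one- to two-leaf stage, with formulated test chemicals. After approximately 10 d in a greenhouse, injury was rated visually against untreated controls on a 0 to 100 scale (0 no effect, 100 complete control).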

[2] = tested on: blackgrass (Alopecurus myosuroides); test: Test A greenhouse herbicide test, postemergence; conditions: for Plant response rating, Blackgrass: 125 g ai/ha, 0 to 100 scale where 0 is no effect and 100 is complete control; for Blackgrass plant response rating: 500 g ai/ha, 0 to 100 scale, 0 is no effect, 100 is complete control
In short: as §1

kochia (Kochia scoparia) = test: Test A greenhouse herbicide test, pre- and postemergence
Text: (§2) Seeds of plant species selected from barnyardgrass (Echinochloa crus-galli), kochia (Kochia scoparia), ragweed (common ragweed, Ambrosia elatior), ryegrass, Italian (Italian ryegrass, Lolium multiflorum), crabgrass, large (large crabgrass, Digitaria sanguinalis), foxtail, giant (giant foxtail, Setaria faberii), momingglory (Ipomoea spp.), pigweed (Amaranthus retroflexus), velvetleaf (Abutilon theophrasti), wheat (Triticum aestivum), and corn (Zea mays) were planted into a blend of loam soil and sand and treated preemergence with a directed soil spray using test chemicals formulated in a non-phytotoxic solvent mixture which included a surfactant.
(§3) At the same time, plants selected from these crop and weed species and also blackgrass (Alopecurus myosuroides), and galium (catchweed bedstraw, Galium aparine) were planted in pots containing the same blend of loam soil and sand and treated with postemergence applications of test chemicals formulated in the same manner. Plants ranged in height from 2 to 10 cm and were in the one- to two-leaf stage for the postemergence treatment. Treated plants and untreated controls were maintained in a greenhouse for approximately 10 d, after which time all treated plants were compared to untreated controls and visually evaluated for injury. Plant response ratings, summarized in Table A, are based on a 0 to 100 scale where 0 is no effect and 100 is complete control. A dash (-) response means no test result.

[3] = tested on: foxtail, giant (giant foxtail, Setaria faberii); test: as above
Text: as §2, §3

[4] = tested on: wheat (Triticum aestivum); test: as above; conditions: Postemergence; for Plant response rating, Wheat: 125 g ai/ha, 0 to 100 scale where 0 is no effect and 100 is complete control; for Wheat plant response rating: 500 g ai/ha, 0 to 100 scale, 0 is no effect, 100 is complete control
Text: as §2, §3

[5] = tested on: ragweed (common ragweed, Ambrosia elatior); test: as above
Text: as §2, §3

[6] = tested on: ryegrass, Italian (Italian ryegrass, Lolium multiflorum); test: as above
Text: as §2, §3

[7] = tested on: barnyardgrass (Echinochloa crus-galli); test: as above
Text: as §2, §3

[8] = tested on: pigweed (Amaranthus retroflexus); test: as above
Text: as §2, §3

corn (Zea mays) = test: as above; conditions: Postemergence; for Plant response rating, Corn: 125 g ai/ha, 0 to 100 scale where 0 is no effect and 100 is complete control; for Corn plant response rating: 500 g ai/ha, 0 to 100 scale, 0 is no effect, 100 is complete control
Text: as §2, §3

rice (Oryza sativa) = test: Test B flooded paddy test; conditions: 250 g ai/ha, Flood; visual rating on scale of 0 to 100 where 0 is no effect and 100 is complete control; 13 to 15 d after treatment
Procedure: (§4) Plant species in the flooded paddy test selected from rice (Oryza sativa), sedge, umbrella (small-flower umbrella sedge, Cyperus difformis), ducksalad (Heteranthera limosa), and barnyardgrass (Echinochloa crus-galli) were grown to the 2-leaf stage for testing. At time of treatment, test pots were flooded to 3 cm above the soil surface, treated by application of test compounds directly to the paddy water, and then maintained at that water depth for the duration of the test. Treated plants and controls were maintained in a greenhouse for 13 to 15 d, after which time all species were compared to controls and visually evaluated. Plant response ratings, summarized in Table B, are based on a scale of 0 to 100 where 0 is no effect and 100 is complete control. A dash (-) response means no test result.

[9] = tested on: sedge, umbrella (small-flower umbrella sedge, Cyperus difformis); test: Test B flooded paddy test; conditions: 250 g ai/ha, Flood; visual rating on scale of 0 to 100 where 0 is no effect and 100 is complete control; 13 to 15 d after treatment
Procedure: as §4

[10] = tested on: barnyardgrass (Echinochloa crus-galli); test: Test B flooded paddy test; conditions: 250 g ai/ha, Flood; visual rating on scale of 0 to 100 where 0 is no effect and 100 is complete control; 13 to 15 d after treatment
Procedure: as §4

[11] = tested on: ducksalad (Heteranthera limosa); test: Test B flooded paddy test; conditions: 250 g ai/ha, Flood; visual rating on scale of 0 to 100 where 0 is no effect and 100 is complete control; 13 to 15 d after treatment
Procedure: as §4

[12] = Postemergence, 125 g ai/ha, 0 to 100 scale where 0 is no effect and 100 is complete control
[13] = Postemergence, 500 g ai/ha, 0 to 100 scale, 0 is no effect, 100 is complete control
[14] = Preemergence, 125 g ai/ha, 0 to 100 scale where 0 is no effect and 100 is complete control
[15] = Preemergence, 500 g ai/ha, 0 to 100 scale where 0 is no effect and 100 is complete control
[16] = Preemergence, 500 g ai/ha, 0 to 100 scale, 0 no effect, 100 complete control

**Q.** For `CCOc1ccc2cccc(-c3c(O)c(C)nn(C)c3=O)c2c1` [Compound 92], which “Plant response rating, Galium” value [1] is on record?
**A.** 10

**Q.** What about the “Galium plant response rating” value [1] of the same compound?
**A.** 30

**Q.** What about the “Plant response rating, Blackgrass” value [2] of the same compound?
**A.** 0

**Q.** And the “Blackgrass plant response rating” value [2]?
**A.** 20

**Q.** And the “Plant response rating, Kochia” value (kochia (Kochia scoparia); [12])?
**A.** 60

**Q.** What about the “Kochia plant response rating” value (kochia (Kochia scoparia); [13]) of the same compound?
**A.** 70

**Q.** And the “Kochia plant response rating” value (kochia (Kochia scoparia); [14])?
**A.** 0

**Q.** And the “Plant response rating, Kochia” value (kochia (Kochia scoparia); [15])?
**A.** 20

**Q.** What about the “Plant response rating, Foxtail, Giant” value [3, 12] of the same compound?
**A.** 0

**Q.** What about the “Foxtail, Giant plant response rating” value [3, 13] of the same compound?
**A.** 0

**Q.** What about the “Foxtail, Giant plant response rating” value [3, 14] of the same compound?
**A.** 0

**Q.** What about the “Plant response rating, Foxtail, Giant” value [3, 15] of the same compound?
**A.** 0

**Q.** What about the “Plant response rating, Wheat” value [4] of the same compound?
**A.** 0

**Q.** And the “Wheat plant response rating” value [4]?
**A.** 0

**Q.** What about the “Plant response rating, Ragweed” value [5, 12] of the same compound?
**A.** 0

**Q.** What about the “Ragweed plant response rating” value [5, 13] of the same compound?
**A.** 0

**Q.** And the “Ragweed plant response rating” value [5, 14]?
**A.** 0

**Q.** What about the “Plant response rating, Ragweed” value [5, 15] of the same compound?
**A.** 0

**Q.** What about the “Plant response rating, Ryegrass, Italian” value [6, 12] of the same compound?
**A.** 0

**Q.** And the “Ryegrass, Italian plant response rating” value [6, 13]?
**A.** 0

**Q.** And the “Ryegrass, Italian plant response rating” value [6, 14]?
**A.** 0

**Q.** And the “Plant response rating, Ryegrass, Italian” value [6, 15]?
**A.** 0

**Q.** And the “Plant response rating, Barnyardgrass” value [7, 12]?
**A.** 0

**Q.** What about the “Barnyardgrass plant response rating” value [7, 13] of the same compound?
**A.** 0

**Q.** And the “Barnyardgrass plant response rating” value [7, 14]?
**A.** 0

**Q.** What about the “Plant response rating, Barnyardgrass” value [7, 15] of the same compound?
**A.** 0

**Q.** What about the “Plant response rating, Pigweed” value [8, 12] of the same compound?
**A.** 20

**Q.** What about the “Pigweed plant response rating” value [8, 13] of the same compound?
**A.** 30

**Q.** And the “Pigweed plant response rating” value [8, 14]?
**A.** 0

**Q.** What about the “Plant response rating, Pigweed” value [8, 15] of the same compound?
**A.** 0

**Q.** What about the “Plant response rating, Corn” value (corn (Zea mays)) of the same compound?
**A.** 0

**Q.** And the “Corn plant response rating” value (corn (Zea mays))?
**A.** 0

**Q.** And the “Plant response rating, Rice” value (rice (Oryza sativa))?
**A.** 0

**Q.** And the “Plant response rating, Sedge, Umbrella” value [9]?
**A.** 40

**Q.** What about the “Plant response rating, Barnyardgrass” value [10] of the same compound?
**A.** 0

**Q.** What about the “Plant response rating, Ducksalad” value [11] of the same compound?
**A.** 0

**Q.** `Cc1ccc2oc(C)c(-c3c(O)c(-c4ccccc4)nn(C)c3=O)c2c1` [Compound 61] was tested. Which “Plant response rating, Galium” value [1] did it give?
**A.** 0

**Q.** And the “Galium plant response rating” value [1]?
**A.** 0

**Q.** And the “Plant response rating, Blackgrass” value [2]?
**A.** 0

**Q.** What about the “Blackgrass plant response rating” value [2] of the same compound?
**A.** 0

**Q.** What about the “Plant response rating, Kochia” value (kochia (Kochia scoparia); [12]) of the same compound?
**A.** 0

**Q.** What about the “Kochia plant response rating” value (kochia (Kochia scoparia); [13]) of the same compound?
**A.** 0

**Q.** And the “Kochia plant response rating” value (kochia (Kochia scoparia); [14])?
**A.** 0

**Q.** What about the “Plant response rating, Kochia” value (kochia (Kochia scoparia); [16]) of the same compound?
**A.** 0

**Q.** What about the “Plant response rating, Foxtail, Giant” value [3, 12] of the same compound?
**A.** 0

**Q.** And the “Foxtail, Giant plant response rating” value [3, 13]?
**A.** 0

**Q.** And the “Foxtail, Giant plant response rating” value [3, 14]?
**A.** 0

**Q.** And the “Plant response rating, Foxtail, Giant” value [3, 16]?
**A.** 0

**Q.** And the “Plant response rating, Wheat” value [4]?
**A.** 0

**Q.** What about the “Wheat plant response rating” value [4] of the same compound?
**A.** 0

**Q.** And the “Plant response rating, Ragweed” value [5, 12]?
**A.** 0

**Q.** What about the “Ragweed plant response rating” value [5, 13] of the same compound?
**A.** 0

**Q.** And the “Ragweed plant response rating” value [5, 14]?
**A.** 0

**Q.** And the “Plant response rating, Ragweed” value [5, 16]?
**A.** 0

**Q.** What about the “Plant response rating, Ryegrass, Italian” value [6, 12] of the same compound?
**A.** 0

**Q.** What about the “Ryegrass, Italian plant response rating” value [6, 13] of the same compound?
**A.** 0

**Q.** What about the “Ryegrass, Italian plant response rating” value [6, 14] of the same compound?
**A.** 0

**Q.** What about the “Plant response rating, Ryegrass, Italian” value [6, 16] of the same compound?
**A.** 0

**Q.** What about the “Plant response rating, Barnyardgrass” value [7, 12] of the same compound?
**A.** 0

**Q.** And the “Barnyardgrass plant response rating” value [7, 13]?
**A.** 0

**Q.** What about the “Barnyardgrass plant response rating” value [7, 14] of the same compound?
**A.** 0

**Q.** And the “Plant response rating, Barnyardgrass” value [7, 16]?
**A.** 0

**Q.** What about the “Plant response rating, Pigweed” value [8, 12] of the same compound?
**A.** 0

**Q.** What about the “Pigweed plant response rating” value [8, 13] of the same compound?
**A.** 0

**Q.** What about the “Pigweed plant response rating” value [8, 14] of the same compound?
**A.** 0

**Q.** What about the “Plant response rating, Pigweed” value [8, 16] of the same compound?
**A.** 0

**Q.** And the “Plant response rating, Corn” value (corn (Zea mays))?
**A.** 0

**Q.** And the “Corn plant response rating” value (corn (Zea mays))?
**A.** 0
